Data from patent US20190269801A1 (CEDARS-SINAI MEDICAL CENTER, priority 2016, published 2019).
Like-named read-outs stand apart in the source and are kept apart here.

Tests used:
[1] = tested on: ex vivo propagated CTCs from human PC patients (3D spheroids)
[2] = tested on: pancreatic and breast cancer CTCs; settings: 3-D spheroids
[3] = tested on: PC cells, 3D spheroids vs 2D monolayer; settings: average
human PC cell lines = test: IC50 in commonly used human PC cell lines; assay type: cell-based
[4] = tested on: Ramos, a B-cell lymphoma, 3-D spheroids; test: Cytotoxicity in Ramos B-cell lymphoma 3-D spheroids; assay type: cell-based
PDAC tumors = settings: imaged 3 days after i.p. administration
[5] = tested on: ex vivo propagated CTCs from human PC patients (3D spheroids); test: Cytotoxicity in ex vivo propagated prostate cancer CTCs grown as 3D spheroids
[6] = tested on: Prostate circulating tumor cells CTC 864; settings: 4 μM, 24 hours; vs control, docetaxel 1.25 μM, abiraterone acetate 3.125 μM
PC3 tumor xenograft = settings: PC3 tumors in mouse; listed as dye-simvastatin
Naive C4-2B PC cells = test: Growth inhibition of naive C4-2B PC cells cultured as 2D monolayer; settings: for IC50: Homo sapiens
[7] = tested on: ovarian tumor cells OV90 and OVCA433; settings: in vitro
[8] = tested on: RCC cell lines Caki-1, o-786, ACHN and SK-RC; test: Growth and viability of RCC cell lines, 72 h exposure (crystal violet); assay type: cell-based, human; settings: range over all RCC cell lines tested
Procedure: (§1) 5,000 cells/well renal cancer cells and 10,000 cells/well lymphoma cells are seeded in 96 well plates in 100 microliter medium/per well for 24 h. […] Renal cancer cells are fixed with 3.7% paraformaldehyde for 15 minutes and are stained with Crystal violet solution (0.5% in 25% methanol) for 30 minutes. After rinsing with water cell layers are dried and decolorized with Sorenson citrate with shaking for 20 minutes. […] Lymphoma cell growth was evaluated using MTT and cells are incubated for 4 hours.
Apoptosis was assessed by caspase 3/7 luminescent assay. Cleavage of apoptosis substrates was determined by western blotting. […] Formalin-fixed tumor, liver and kidney sections were stained with H&E and kidney sections were scored semiquantitativey.

[9] = tested on: Namalwa and Raji cell lines; test: Apoptosis by caspase 3/7 luminescent assay and western blot in BL cell lines; assay type: cell-based, human; settings: 24 hours of drug exposure, 8, 16, 32 μM
Procedure: Namalwa cells are cultured in RPMI 1640, 10% fetal bovine serum, 1% PenStrep, and placed in a humidified atmosphere containing 5% CO2 at 37° C. 10,000-15,000 cells/well are seeded in 96 white wall well plates in 100 microliter medium/per well for 24 h. […] 100 microliters of Caspase-Glo 3/7 assay is added and luminescence is then read. Caki-1 cells are cultured in RPMI 1640, 10% fetal bovine serum, 1% PenStrep, and placed in a humidified atmosphere containing 5% CO2 at 37° C. 5,000 cells/well are seeded in 96 white wall well plates in 100 microliter medium/per well for 24 h. […] 100 microliters of Caspase-Glo 3/7 assay is added and luminescence is then read.

[10] = tested on: B-cell lymphoma cell lines Namalwa, Raji, CA46, Ramos, Daudi; test: Growth and viability of B-cell Burkitt's lymphoma cell lines, MTT, 72 h; assay type: cell-based, human; settings: 72 h exposure; range over all BL cell lines tested
Procedure: as §1
(§2) Induction of apoptosis was assessed using a caspase 3/7 luminescent assay. Cleavage of apoptosis substrates and inhibition of c-myc was determined by western blotting, with images quantified by ImageJ after normalization with GAPDH. […] Formalin-fixed tumor and kidney sections were stained with hematoxylin and esosin and kidney sections scored using a semiquantitative scale designed to assess AKI-associated tubular injury (tubular epithelial cell loss, necrosis, tubular epithelial simplification, intratubular debris, and casts).

bcl-2 = bcl-2 western blot in BL cell lines; assay type: cell-based, human
[11] = tested on: renal (ACHN, o-786, SKRC, Caki-1), breast (MCF-7), lung (H358), liver (HepG2), prostate (PC3, LNCaP, C4-2B), pancreatic (MIAPaCa II) and glioblastoma (U87) …; test: Cell inhibition by NIR-783 dye in a cancer cell line panel; assay type: cell-based; settings: in vitro
[12] = tested on: PC cell lines (PC3, LNCaP, C4-2, C4-2B, 22Rv1); test: Viability of immortalized prostate cancer cell lines grown as 2D monolayers; assay type: cell-based, human; settings: 72 hours of drug exposure
Procedure: (§3) Immortalized PC cell lines (PC3, LNCaP, C4-2, C4-2B, 22Rv1) and 3-D spheroid growth of mouse bone marrow-derived LNCaP and C4-2B and ex vivo expanded CTCs from patients were used. […] Induction of apoptosis was assessed by caspase 3/7 luminescent assay. Growth inhibitory effects were compared between 2-D and 3-D. Senescent luciferase-tagged LNCaP and C4-2B cells from mouse bone marrow regained growth potential when propagated in vitro as 3D spheroids. RPMI medium supplemented with 10% FBS and 1% penicillin/streptomycin was used to grow CTCs in vitro.

[13] = tested on: ex vivo expanded CTCs from PC patients and LNCaP and C4-2B cells from mouse bone marrow, 3-D spheroids; test: Viability/apoptosis of PC CTCs and bone marrow-derived LNCaP and C4-2B grown as 3-D spheroids; assay type: cell-based, human
Procedure: as §3

microtubule = test: Microtubule dynamics in PC cells; assay type: cell-based
Procedure: Microtubule dynamics are measured in NIR-SM or SM treated PC cells in the presence or absence of DT according to published protocols. Microtubule dynamics are assessed by fluorescence imaging methods, where immunolabeled tubulin is the readout for measurements of polarized forced generation, contractility and response to substrate stiffness measured in the presence of DT using established protocols. […] We test other agents, such as nocodazole and vincristine, which without being bound by theory we hypothesize block the polymerization of tubulin into microtubules, and cold temperature that can cause a rapid depolymerization of microtubules. With these controls, we determine if NIR-SM or SM may differ in enhancing the activity of DT in promoting microtubule polymerization in PC cells.

Resistant C4-2B PC cells = test: Growth inhibition of AA/EZ resistant C4-2B PC cells cultured as 2D monolayer; assay type: cell-based; settings: Homo sapiens
mouse kidneys = test: Kidney histopathology, AKI-associated tubular injury score, Namalwa-bearing mice; settings: i.p. 3 times a week for 4 weeks
Procedure: FIG. 27 depicts in accordance with various embodiments of the invention, formalin-fixed kidney sections are stained with hematoxylin and esosin and scored using a semiquantitative scale designed to assess AKI-associated tubular injury (tubular epithelial cell loss, necrosis, tubular epithelial simplification, intratubular debris, and casts).
as §2

Namalwa tumors = test: Namalwa xenograft growth in mice; assay type: in vivo, mouse; settings: equimolar doses i.p. 3 times a week
c-myc = c-myc western blot in BL cell lines; assay type: cell-based, human

CCC(C)(C)C(=O)O[C@H]1C[C@@H](C)C=C2C=C[C@H](C)[C@H](CC[C@@H]3C[C@@H](OC(=O)CCCCCN4/C(=C/C=C5\CCCC(/C=C/C6=[N+](CCCCS(=O)(=O)[O-])c7ccccc7C6(C)C)=C5Cl)C(C)(C)c5ccccc54)CC(=O)O3)[C@H]21 [NIR-SM, DZ-1-Simvastatin Conjugate]
IC50 [1]: 5 µM
enhancement of the cytotoxicity exerted by AA, EZ or DT [1]: 21-122 fold
effectiveness relative to unconjugated simvastatin [2]: more effective than unconjugated simvastatin
accumulation in PC 3D spheroids higher than in PC 2D monolayer [3]: 5 fold
effect on the growth of PC cells (human PC cell lines; 0.25 μM): marginal effects
potency relative to unconjugated simvastatin [4]: about 5 fold
synergized cisplatin cytotoxicity [4]: over 190 fold
tumor targeting (PDAC tumors): targets specifically PDAC tumors
IC50 lower than SM [5]: about 4 fold
effectiveness relative to unconjugated simvastatin [5]: more effective than unconjugated simvastatin
rate of apoptosis (caspase 3/7) [6]: significantly higher rate of apoptosis
accumulation in tumor (PC3 tumor xenograft): selective accumulation
sensitization of the cytotoxic effects of AA and EZ (Naive C4-2B PC cells; NIR-SM 0.25 μM, both control and AA/EZ resistant PC cells in the C4-2B background): 4-5 fold
sensitivity of cell growth relative to unconjugated drug [7]: more sensitive
synergy with enzalutamide (Enz) and abiraterone acetate (Abi) growth inhibition (C4-2B cells): synergizes the growth inhibitory effects of anti-androgens
synergy with docetaxel growth inhibition (C4-2B cells; conjugate at 2 uM): synergizes the growth inhibitory effects of docetaxel

CCC(C)(C)C(=O)O[C@H]1C[C@@H](C)C=C2C=C[C@H](C)[C@H](CC[C@@H]3C[C@@H](O)CC(=O)O3)[C@H]21 [SM, Simvastatin, reference compound]
IC50 (human PC cell lines; Homo sapiens, range over cell lines, dependent upon the cell types): 1 to 7 µM
IC50 ([5]; ex vivo propagated CTCs): 20 µM

N.N.[Cl][Pt][Cl] [cisplatin, reference compound]
IC50 [8]: > 64 µM
induction of apoptosis (caspase 3/7; caspase 9, caspase 3 and PARP) ([9]; listed as Cis): no sign of increased apoptotic activity
IC50 [10]: > 64 µM
bcl-2 expression (bcl-2): no significant changes

CC1(C)C(=CC=C2CCCC(C=CC3=[N+](CCCCS(=O)(=O)[O-])c4ccccc4C3(C)C)=C2Cl)N(CCCCS(=O)(=O)[O-])c2ccccc21.[Na+] [NIR-783]
cell inhibition effect [11]: does not exhibit significant cell inhibition effect

Nc1ccn([C@@H]2O[C@H](CO)[C@@H](O)C2(F)F)c(=O)n1 [gemcitabine]
sensitivity of cells grown as 2D monolayers [12]: sensitive

CNC(=O)c1ccc(N2C(=S)N(c3ccc(C#N)c(C(F)(F)F)c3)C(=O)C2(C)C)cc1F [EZ, enzalutamide]
sensitivity of cells grown as 3-D spheroids [13]: resistance with no signs of apoptosis
sensitivity of cells grown as 2D monolayers [12]: sensitive

CC(=O)O[C@@]12CO[C@@H]1C[C@H](O)[C@@]1(C)C(=O)[C@H](O)C3=C(C)[C@@H](OC(=O)[C@H](O)[C@@H](NC(=O)OC(C)(C)C)c4ccccc4)C[C@@](O)([C@@H](OC(=O)c4ccccc4)[C@H]21)C3(C)C [DT, docetaxel]
sensitivity of cells grown as 3-D spheroids [13]: resistance with no signs of apoptosis
sensitivity of cells grown as 2D monolayers [12]: sensitive
effect on microtubules (microtubule): enhances microtubule polarization and inhibits shrinkage of microtubule length

CC(=O)O[C@H]1CC[C@@]2(C)C(=CC[C@@H]3[C@@H]2CC[C@]2(C)C(c4cccnc4)=CC[C@@H]32)C1 [AA, abiraterone acetate]
sensitivity of cells grown as 3-D spheroids [13]: resistance with no signs of apoptosis
sensitivity of cells grown as 2D monolayers [12]: sensitive
IC50 (Resistant C4-2B PC cells; NIR-SM 0 μM): 13.3 µM
IC50 (Resistant C4-2B PC cells; NIR-SM 0.25 μM): 3.32 µM
IC50 (Naive C4-2B PC cells; read-out: AA IC50, Naive C4-2B, 2D monolayer, NIR-SM 0 μM): 6.79 µM
IC50 (Naive C4-2B PC cells; read-out: AA IC50, Naive C4-2B, 2D monolayer, NIR-SM 0.25 μM): 1.65 µM

DZ-1-cisplatin [NIR dye-cisplatin]
kidney toxicity (histopathology) (mouse kidneys): preserved the integrity and normal morphology of mouse kidneys
tumor growth inhibition (Namalwa tumors): tumor growth inhibition and apoptotic nuclear lobulation/fragmentation
induction of apoptosis (caspase 3/7; caspase 9, caspase 3 and PARP) [9]: induces apoptosis
c-myc expression (c-myc): downregulates
bcl-2 expression (bcl-2): no significant changes
